compound,measurement,value
"Cc1cccc(C(=O)NC(C)C)c1NC(=O)c1cnc(C(F)(F)F)nc1C [Example 5, 4-Methyl-N-[2-methyl-6-[[(1-methylethyl)amino]carbonyl]phenyl]-2-(trifluoromethyl)-5-pyrimidinecarboxamide]",melting point,216 to 217 °C

# From patent US6995178B2, “Insecticidal anthranilamides” (E. I. du Pont de Nemours and Company, priority 2000, dated 2006)
